In ChEMBL document CHEMBL1129907, “The SAR of UK-78,282: A novel blocker of human T cell Kv1.3 potassium channels” (Bioorg Med Chem Lett, 1997):

Test system: T-cell line
Experiment: In vitro inhibitory potency against human T-cells Rb efflux
Assay type: functional, cell-based

Row | IC50 [nM] | Structure (SMILES)
1 | > 20000 | COc1ccc(CCC[n+]2ccc(COC(c3ccccc3)c3ccccc3)cc2)cc1
2 | 2800 | COc1ccc(CCCN2CCC(CNC(c3ccccc3)c3ccccc3)CC2)cc1
3 | 3200 | COc1ccc(CCCN2CCC(COC(c3ccc(Br)cc3)c3ccc(Br)cc3)CC2)cc1
4 | 400 | COc1ccc(CCCN2C3CCC2CC(COC(c2ccccc2)c2ccccc2)C3)cc1 (stereo not given)
5 | > 20000 | CCN1CCC(COC(c2ccccc2)c2ccccc2)CC1
6 | 2200 | Clc1ccc(CCCN2CCC(COC(c3ccccc3)c3ccccc3)CC2)cc1Cl
7 | 5600 | c1ccc(C(OCC2CCN(CC3CCc4ccccc4C3)CC2)c2ccccc2)cc1 (stereo not given)
8 | 10800 | CCCCCN1CCC(COC(c2ccccc2)c2ccccc2)CC1
9 | 1500 | COc1cccc(CCCN2CCC(COC(c3ccccc3)c3ccccc3)CC2)c1
10 | 200 | COc1ccc(CCCN2CCC(CCC(c3ccccc3)c3ccccc3)CC2)cc1
11 | 1500 | COc1ccc(CCCN2CCC(C(O)CC(c3ccccc3)c3ccccc3)CC2)cc1 (stereo not given)
12 | 200 | COc1ccc(CCCN2CCC(COCc3ccc(Cl)c(Cl)c3)CC2)cc1
13 | 3400 | COc1ccc(CC2(CN3CCC(COC(c4ccccc4)c4ccccc4)CC3)CCCCC2)cc1
14 | > 20000 | C(#Cc1ccccc1)CN1CCC(COC(c2ccccc2)c2ccccc2)CC1
15 | 17800 | CCCN1CCC(COC(c2ccccc2)c2ccccc2)CC1
16 | 400 | COc1ccc(CCCN2CCC(=CCC(c3ccccc3)c3ccccc3)CC2)cc1
17 | 2100 | COc1ccc(CCCN2CCC(COCc3ccccc3)CC2)cc1
18 | 800 | Clc1ccccc1CCCN1CCC(COC(c2ccccc2)c2ccccc2)CC1
19 | 5900 | COc1ccc(CCCN2CCC(COCc3ccccn3)CC2)cc1
20 | 700 | c1ccc(CCCN2CCC(COC(c3ccccc3)c3ccccc3)CC2)cc1

Row | IC50 [nM] | Structure (SMILES)
21 | 2900 | COc1ccc(CCN2CCC(COC(c3ccccc3)c3ccccc3)CC2)cc1
22 | 1100 | COc1ccc(CCCN2CCC(COC(c3ccc(Cl)cc3)c3ccc(Cl)cc3)CC2)cc1
23 | 700 | CCCCCCCCCN1CCC(COC(c2ccccc2)c2ccccc2)CC1
24 | 2700 | COc1ccc(CCCN2CCN(CCC(c3ccccc3)c3ccccc3)CC2)cc1
25 | > 20000 | CN1CCC(COC(c2ccccc2)c2ccccc2)CC1
26 | 700 | CCCCCCCCN1CCC(COC(c2ccccc2)c2ccccc2)CC1
27 | 4300 | COc1ccc(/C=C/CN2CCC(COC(c3ccccc3)c3ccccc3)CC2)cc1
28 | > 20000 | COc1ccc(CCCN2CCC(CO)CC2)cc1
29 | 2600 | CCCCCCCCCCN1CCC(COC(c2ccccc2)c2ccccc2)CC1
30 | 500 | COc1ccc(CCCN2CCC(COCc3ccc(Cl)cc3)CC2)cc1
31 | 500 | Clc1ccc(CCCN2CCC(COC(c3ccccc3)c3ccccc3)CC2)cc1
32 | 2400 | COc1ccccc1CCCN1CCC(COC(c2ccccc2)c2ccccc2)CC1
33 | 400 | COc1ccc(CCCN2CCC(COC(c3ccccc3)c3ccccc3)CC2)cc1
34 | 14000 | CCCCN1CCC(COC(c2ccccc2)c2ccccc2)CC1
35 | 200 | Cc1ccc(CCCN2CCC(COC(c3ccccc3)c3ccccc3)CC2)cc1
36 | 200 | COc1ccc(CCCN2CCC(COC(c3ccccc3)c3ccc(Cl)cc3)CC2)cc1 (stereo not given)
37 | 3000 | COc1ccc(CCCN2CCC(COCC3CCCCC3)CC2)cc1
38 | 500 | CCCCCCCN1CCC(COC(c2ccccc2)c2ccccc2)CC1
39 | 5500 | CCCCCCN1CCC(COC(c2ccccc2)c2ccccc2)CC1

Test system: T-cell line
Experiment: In vitro inhibition of Rb efflux in human T-cells; 1-10
Assay type: functional, cell-based

Row | IC50 [nM] | Structure (SMILES)
40 | 1000 | CCCCCCC[N+](CC)(CC)CCCCc1ccc(Cl)cc1 [CLOFILIUM]
41 | 1000 | CN(CCOc1ccc(NS(C)(=O)=O)cc1)CCc1ccc(NS(C)(=O)=O)cc1 [DOFETILIDE]
42 | 1000 | COc1ccc(Cl)cc1C(=O)NCCc1ccc(S(=O)(=O)NC(=O)NC2CCCCC2)cc1 [GLYBURIDE]
43 | 1000 | CC(C)NCC(O)c1ccc(NS(C)(=O)=O)cc1 (stereo not given) [SOTALOL]
44 | 1000 | CC[N+](CC)(CC)CC [TETRYLAMMONIUM]

Molecular target: Potassium voltage-gated channel subfamily A member 3 (Homo sapiens, UniProt P22001)
Sequence (P22001 whole entry): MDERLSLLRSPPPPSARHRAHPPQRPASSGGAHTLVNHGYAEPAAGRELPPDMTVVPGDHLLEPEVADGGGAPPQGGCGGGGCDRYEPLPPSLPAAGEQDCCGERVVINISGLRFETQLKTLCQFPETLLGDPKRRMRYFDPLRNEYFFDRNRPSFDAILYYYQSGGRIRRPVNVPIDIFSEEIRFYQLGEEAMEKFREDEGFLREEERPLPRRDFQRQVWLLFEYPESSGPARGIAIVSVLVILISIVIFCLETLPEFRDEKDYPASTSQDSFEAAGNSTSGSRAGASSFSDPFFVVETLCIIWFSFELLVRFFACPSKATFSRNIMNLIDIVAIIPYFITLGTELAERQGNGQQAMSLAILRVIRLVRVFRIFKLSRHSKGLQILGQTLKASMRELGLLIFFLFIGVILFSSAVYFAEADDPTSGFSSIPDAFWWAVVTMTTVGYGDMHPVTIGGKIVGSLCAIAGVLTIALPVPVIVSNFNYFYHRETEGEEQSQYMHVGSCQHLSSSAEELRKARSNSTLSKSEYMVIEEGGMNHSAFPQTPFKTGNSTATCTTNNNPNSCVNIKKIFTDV
Experiment: In vitro inhibition of human T-cells voltage-gated potassium channel subunit Kv1.3
Assay type: cell-based, T-cell

Row | IC50 [nM] | Structure (SMILES)
45 | 200 | COc1ccc(CCCN2CCC(COC(c3ccccc3)c3ccccc3)CC2)cc1
